Values of other authors, collected in patent US9066965B1, “Purified limonin glucoside for prevention and treatment of chronic diseases” (The United States of America, as represented by the …, priority 2012, dated 2015).

Experiments:
[1] = purified flavonoids, hypercholesterolemic men and women; cited from earlier work
TGRS = target: T1, TGRS (Homo sapiens, UniProt Q8TDU6); details: cited from earlier work
T1 sequence (Q8TDU6 1-330): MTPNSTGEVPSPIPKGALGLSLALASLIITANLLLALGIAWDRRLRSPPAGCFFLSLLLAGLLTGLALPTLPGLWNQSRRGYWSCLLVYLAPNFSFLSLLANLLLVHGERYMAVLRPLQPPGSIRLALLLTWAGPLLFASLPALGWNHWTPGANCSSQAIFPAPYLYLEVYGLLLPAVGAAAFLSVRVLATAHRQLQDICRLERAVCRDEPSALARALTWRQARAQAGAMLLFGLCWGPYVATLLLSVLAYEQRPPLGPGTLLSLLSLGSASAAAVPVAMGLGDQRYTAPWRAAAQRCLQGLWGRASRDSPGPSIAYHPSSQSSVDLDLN

Hep G2 cell line = details: cited from earlier work
[2] = 0.2% in diet, mice fed high fat diets; cited from earlier work

Structure (SMILES) | effect on serum total- and LDL cholesterol [1] | activation of TGRS (TGRS) | Apo B secretion (Hep G2 cell line) | high fat diet induced obesity and hyperglycemia [2]
COc1ccc([C@@H]2CC(=O)c3c(O)cc(O[C@@H]4O[C@H](CO[C@@H]5O[C@@H](C)[C@H](O)[C@@H](O)[C@H]5O)[C@@H](O)[C@H](O)[C@H]4O)cc3O2)cc1O [hesperidin] | did not alter | – | – | –
CC1(C)O[C@H]2CC(=O)OC[C@]23[C@H]2CC[C@@]4(C)[C@H](c5ccoc5)OC(=O)[C@H]5O[C@]54[C@]2(C)C(=O)C[C@@H]13 [limonin] | – | did not activate | significantly decreased | –
C[C@@H]1O[C@@H](O[C@H]2[C@H](Oc3cc(O)c4c(c3)O[C@H](c3ccc(O)cc3)CC4=O)O[C@H](CO)[C@@H](O)[C@@H]2O)[C@H](O)[C@H](O)[C@H]1O [naringin] | did not alter | – | – | –
CC(=O)O[C@H]1CC(=O)OC(C)(C)[C@@H]2CC(=O)[C@]3(C)[C@H](CC[C@@]4(C)[C@H](c5ccoc5)OC(=O)[C@H]5O[C@]543)[C@@]12C [nomilin] | – | activating | – | prevented
